Experimental data from patent US8987486B2, “Trans-2-decenoic acid derivative and pharmaceutical agent containing the same” (Nagoya Industrial Science Research Institute, priority 2010, dated 2015).

How the values were obtained:
[1] = tested on: paclitaxel-induced peripheral nerve disorder rats; assay: von Frey test in paclitaxel-induced peripheral nerve disorder rats; assay type: in vivo; conditions: Rattus norvegicus, ip; single intraperitoneal dose of 300 μ/kg; higher of the thresholds after 1 hour and 5 hours; normal threshold 15; read-out: Recovery rate of 50% reaction threshold value (%)
Protocol: The effect of the compound of the present invention was tested for a peripheral nerve disorder which is a side effect induced by the administration of paclitaxel (an anti-cancer agent) such as hyperesthesia including allodynia (severe pain induced by such tactile stimuli which usually cause no pain). The compound of the present invention was intraperitoneally administered to rats as a test drug to conduct a von Frey test.
Male SD rats of six weeks age (one group comprising six rats) were used as experimental animals and paclitaxel (2 mg/kg) was intraperitoneally administered every other day for four times in total to prepare paclitaxel-induced peripheral nerve disorder rats. During 18 and 25 days or during 20 to 27 days after initiation of paclitaxel administration, the test drug was intraperitoneally administered in a single dose of […] and the following von Frey test was conducted.
The rats of the above (1) were placed in a transparent acrylic cage with a wire-meshed floor and habituated for about three minutes and the 50% reaction threshold values to the mechanical stimulus of right hind limb were measured before administration of the test drug and after 1, 5 and 24 hours from initiation of the administration.
The measurement was conducted using von Frey filaments (manufactured by North Coast Medical Inc.) in accordance with the methods of Chaplan, et al. (Journal of Neuroscience Methods, vol. 53, no. 1, pages 55 to 63, 1994) and Dixon, et al. (Annual Review of Pharmacology and Toxicology, vol. 20, pages 441 to 462, 1980). […] The case where the rat escaped at the instance of removing the filament was also called positive. When the positive reaction was noted, stimulus was conducted similarly using a filament of one rank weaker while, when no reaction was noted, stimulus was conducted similarly using a filament of one rank stronger and the point when the reaction changed from negative to positive or from positive to negative was called the first two reactions. After that, stimulus was conducted for continuous four times by the same up-down method. A 50% reaction threshold value to the mechanical stimulus was measured using the reaction to the six stimuli in total and then (mean value)±(standard error) for each group was calculated. Incidentally, when stimulus reached by that of 15.0 g without positive reaction or, when positive reaction continued to 0.4 g, then 15.0 g or 0.25 g was adopted as each threshold value, respectively. With regard to the higher 50% reaction threshold value between the 50% threshold values after 1 hour and 5 hours from administration of a test drug, a recovery rate (%) of the 50% reaction threshold value was calculated by the following expression in which 15 was adopted as the normal threshold value. Recovery rate (%) of 50% reaction threshold value=[(50% reaction threshold value after 1 hour or 5 hours from administration of test drug)−(50% reaction threshold value before administration of test drug)]/[(Normal threshold value)−(50% reaction threshold value before administration of test drug)]

PC12 cells = assay: Evaluation using PC12 cells; immunostaining method for MAPK phosphorylation; assay type: cell-based; conditions: 30 minutes
Protocol: PC12 cells were stimulated using the compound of the present invention and the phosphorylation of MAPK was evaluated by means of immunostaining of the cells. The specific operation procedure is as follows.
A cover glass was placed on a 24-well plate followed by coating with poly-L-lysine. PC12 cells were seeded in a cell density of 50,000 cells/well. (The amount of the medium was 400 μL) On the first day after seeding the cells, the medium was exchanged to DMEM containing 1% fetal bovine serum (FBS) and 0.06% L-glutamine.
The compound which was previously diluted with DMSO was dissolved in 100 μl of medium. After 12 to 16 hours from the medium exchange, 100 μl out of 400 μl of the medium was removed from each well and, in place of that, 100 μl of a medium containing the compound was added.
After 30 minutes from the addition, fixation was conducted using 4% paraformaldehyde (PFA) for 10 minutes. The fixed cells were washed with a Tris-buffered saline (TBS) and a TBS containing 0.3% Triton X was added thereto followed by incubating at 37° C. for 30 minutes. This was washed with a TBS and blocked with a TBS containing 3% skim milk for 30 minutes (at room temperature).
This was washed with a TBS for one time and a primary antibody (anti-phospho-p42/44 MAPK antibody; cell signalings; #9102 being diluted with TBS to an extent of 1,000-fold) was added thereto followed by subjecting to the reaction at 4° C. for one night. The primary antibody was removed and washed with a TBS for three times. After that, the secondary antibody (Alexa 488 goat anti-rabbit antibody; Invitrogen: being diluted to an extent of 1,000-fold using a TBS containing 1% Block Ace) was added thereto and the reaction was conducted at room temperature for 3 hours. The secondary antibody was removed and, after washing with a TBS, fixation was conducted with 4% PFA for 1 hour.
This was washed with a TBS, Hoechst (diluted with a TBS to an extent of 2000-fold) was added thereto and nuclear staining was conducted. This was washed and mounted.
Taking the photographic pictures and counting the positive cells were conducted as follows. An all-in-one microscope (manufactured by Keyence) was used, exposing time for pMAPK (green) was made 1/2.8 s, the place was appropriately decided in a Hoechst-stained image and the pictures were taken. Four pictures per one glass sheet were taken.
Photoshop (Adobe) was used and the cells having above a certain luminance were judged to be positive. All cells were labeled using Hoechst 33342 manufactured by Invitrogen and the rate of pMAPK-positive cells in Hoechst-positive cells was calculated. (cf. Table 7)

Structure (SMILES) | inhibition in vivo at 0.3 mg/kg [1] [%] | also measured
CCCCCCC/C=C/C(=O)SC1CCCC1 [Compound 53, (E)-S-cyclopentyl dec-2-enethioate] | 34.9 | –
CCCCCCC/C=C/C(=O)NCCCCC [Compound 19, (E)-N-pentyl dec-2-enamide] | 73.7 | –
CCCCCCC/C=C/C(=O)OCCOCCN(C)C [Compound 12, (E)-2-(2-(dimethylamino)ethoxy)ethyl dec-2-enoate] | – | Rate of pMAPK-positive cells (%) (PC12 cells; 62.5 μg/mL): 11%; Rate of pMAPK-positive cells (%) (PC12 cells; 125 μg/mL): 17%; Rate of pMAPK-positive cells (%) (PC12 cells; 250 μg/mL): 9%; Rate of pMAPK-positive cells (%) (PC12 cells; 500 μg/mL): 29%
CCCCCCC/C=C/C(=O)NCCC(C)C [Compound 20, (E)-N-isopentyl dec-2-enamide] | 42.5 | –
CCCCCCC/C=C/C(=O)NCC [Compound 16, (E)-N-ethyl dec-2-enamide] | 59.7 | –
CCCCCCC/C=C/C(=O)NC(C)(C)CC [Compound 21, (E)-N-tert-pentyl dec-2-enamide] | 63.2 | –
CCCCCCC/C=C/C(=O)NC(CCC)CCC [Compound 24, (E)-N-(heptan-4-yl) dec-2-enamide] | 56.1 | –
CCCCCCC/C=C/C(=O)OCC(C)(C)CN(C)C [Compound 5, (E)-3-(dimethylamino)-2,2-dimethylpropyl dec-2-enoate] | – | Rate of pMAPK-positive cells (%) (PC12 cells; 62.5 μg/mL): 1%; Rate of pMAPK-positive cells (%) (PC12 cells; 125 μg/mL): 23%; Rate of pMAPK-positive cells (%) (PC12 cells; 250 μg/mL): 0%; Rate of pMAPK-positive cells (%) (PC12 cells; 500 μg/mL): 24%
CCCCCCC/C=C/C(=O)OC(C)CN(C)C (stereo not shown) [Compound 3, (E)-1-(dimethylamino)propan-2-yl dec-2-enoate] | – | Rate of pMAPK-positive cells (%) (PC12 cells; 62.5 μg/mL): 0%; Rate of pMAPK-positive cells (%) (PC12 cells; 125 μg/mL): 12%; Rate of pMAPK-positive cells (%) (PC12 cells; 250 μg/mL): 14%; Rate of pMAPK-positive cells (%) (PC12 cells; 500 μg/mL): 14%
CCCCCCC/C=C/C(=O)SCCC(C)C [Compound 49, (E)-S-isopentyl dec-2-enethioate] | 69.3 | –
CCCCCCC/C=C/C(=O)NCCN(CCCC)CCCC [Compound 41, (E)-N-2-(dibutylamino)ethyl dec-2-enamide] | 28.3 | –
CCCCCCC/C=C/C(=O)NCCCC [Compound 17, (E)-N-butyl dec-2-enamide] | 52.6 | –
CCCCCCC/C=C/C(=O)NCCCCCCC [Compound 23, (E)-N-heptyl dec-2-enamide] | 28.6 | –
CCCCCCC/C=C/C(=O)NC [Compound 15, (E)-N-methyl dec-2-enamide] | 37.7 | –
CCCCCCC/C=C/C(=O)N(CCCCCC)CCCCCC [Compound 34, (E)-N,N-dihexyl dec-2-enamide] | 48.3 | –
CCCCCCC/C=C/C(=O)OC(COCC)COCC [Compound 11, (E)-1,3-diethoxy-2-propyl dec-2-enoate] | 37.6 | –
CCCCCCC/C=C/C(=O)Nc1ccccc1 [Compound 28, (E)-N-phenyl dec-2-enamide] | 19.4 | –
CCCCCCC/C=C/C(=O)NCCCN(C)C [Compound 38, (E)-N-3-(dimethylamino)propyl dec-2-enamide] | 52.1 | –
CCCCCCC/C=C/C(=O)OCCOC [Compound 9, (E)-2-methoxyethyl dec-2-enoate] | 51.4 | –
CCCCCCC/C=C/C(=O)SCCc1ccccc1 [Compound 54, (E)-S-phenethyl dec-2-enethioate] | 51.9 | –
CCCCCCC/C=C/C(=O)NCCCCCC [Compound 22, (E)-N-hexyl dec-2-enamide] | 64.6 | –
CCCCCCC/C=C/C(=O)NCCN(C(C)C)C(C)C [Compound 40, (E)-N-2-(diisopropylamino)ethyl dec-2-enamide] | 71.5 | –
CCCCCCC/C=C/C(=O)N(CC)CCCCCCC [Compound 35, (E)-N-ethyl-N-heptyl dec-2-enamide] | 47.1 | –
CCCCCCC/C=C/C(=O)SCCCCCCCCCC [Compound 52, (E)-S-decyl dec-2-enethioate] | 18.7 | –
CCCCCCC/C=C/C(=O)NCCCN(CC)CC [Compound 39, (E)-N-3-(diethylamino)propyl dec-2-enamide] | 49.7 | –
